The text below walks through data of PMC10763615, “Identification and engineering of potent cyclic peptides with selective or promiscuous binding through biochemical profiling and bioinformatic data analysis” (RSC Chemical Biology, 2023).

SMILES strings stand for the structures.

As usually defined, the Kd is a measure of binding affinity in units of concentration.

One experiment concerns the target T1, FGF-R4 ECD (Homo sapiens, UniProt P22455).
T1 construct: DNA constructs for the extracellular domain (ECD) of human FGF-; HPC4 (C); made in house; host or cells: HEK 293-6E
T1 sequence (P22455 22-369 limits assumed): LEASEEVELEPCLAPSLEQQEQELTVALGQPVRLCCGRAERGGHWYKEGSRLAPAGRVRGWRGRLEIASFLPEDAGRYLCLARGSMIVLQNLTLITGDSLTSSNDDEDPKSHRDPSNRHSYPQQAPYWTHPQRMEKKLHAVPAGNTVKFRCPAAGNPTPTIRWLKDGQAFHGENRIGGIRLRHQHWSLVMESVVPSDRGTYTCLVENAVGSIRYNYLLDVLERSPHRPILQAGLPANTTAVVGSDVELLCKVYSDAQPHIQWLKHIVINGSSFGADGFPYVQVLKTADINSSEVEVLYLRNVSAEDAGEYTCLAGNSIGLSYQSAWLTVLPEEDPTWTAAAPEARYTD
The experiment in a line: multi-concentration BLI of purified peptides. It counts as binding. As to conditions: purified trimer-18 library peptides. The method, then: (§1) KD affinity binding measurements were obtained by biolayer interferometry (BLI) instruments (Fortebio Octet HTX, or Sartorius Octet RH16 using either 8 or 16 channel mode.
(§2) For single concentration binding experiments, 50 μM peptide stocks in folding buffer were diluted 1:50 in mRNA display selection buffer (PBS pH7.4 supplemented with 0.05% Tween-20 and 0.01% BSA) in either a 96 well black plate, or a 384 well tilted bottom microplate (ForteBio). Biotinylated FGF-R protein was loaded onto Streptavidin-functionalised biosensors (ForteBio) and immersed into ~1 μM peptide to obtain association kinetics curves. Dissociation kinetics curves were obtained by subsequent immersion of ligand-associated loaded sensors into a 1:50 dilution of folding buffer in mRNA display selection buffer. Fitted KD data was adjusted for concentration as determined by UPLC-CAD.
(§3) For accurate multi-concentration KD determination, dilution series of each peptide were made, and association and dissociation kinetics curves were obtained as above for each concentration to fit a multi-point KD binding model. Data collection and analysis was performed using the Octet Instrument Control […]
(§4) concentration assay kinetics curves shown in supplementary Figure S 19-24.

Another experiment concerns the target T2, FGF-R1C ECD (Homo sapiens, UniProt P11362).
T2 sequence (P11362 22-376 limits assumed): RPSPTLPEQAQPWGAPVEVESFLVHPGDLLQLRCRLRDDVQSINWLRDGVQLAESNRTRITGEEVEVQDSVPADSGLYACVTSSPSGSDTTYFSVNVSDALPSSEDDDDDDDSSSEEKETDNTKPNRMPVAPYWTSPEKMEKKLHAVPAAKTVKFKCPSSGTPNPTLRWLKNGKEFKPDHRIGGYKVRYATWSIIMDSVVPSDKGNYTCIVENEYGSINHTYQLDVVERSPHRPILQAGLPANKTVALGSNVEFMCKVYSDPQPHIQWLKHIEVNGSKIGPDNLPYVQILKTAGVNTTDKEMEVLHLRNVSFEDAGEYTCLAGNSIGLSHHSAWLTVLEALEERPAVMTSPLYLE
The experiment is described as follows: biochemical. The protocol: as §1, §2, §3, §4

The target of a further experiment is T3, FGF-R3C ECD (Homo sapiens, UniProt P22607).
T3 sequence (P22607 23-375 limits assumed): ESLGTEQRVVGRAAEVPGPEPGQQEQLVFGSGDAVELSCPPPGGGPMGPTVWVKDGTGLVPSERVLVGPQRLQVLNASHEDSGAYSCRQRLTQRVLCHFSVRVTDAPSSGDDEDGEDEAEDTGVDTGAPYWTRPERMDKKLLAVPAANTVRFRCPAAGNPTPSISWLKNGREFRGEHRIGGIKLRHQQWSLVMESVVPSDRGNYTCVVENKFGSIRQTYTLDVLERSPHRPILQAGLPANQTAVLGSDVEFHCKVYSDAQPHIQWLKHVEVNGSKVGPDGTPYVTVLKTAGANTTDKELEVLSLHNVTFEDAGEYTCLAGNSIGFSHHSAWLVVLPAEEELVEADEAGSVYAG
The experiment is described as follows: biochemical. The protocol:
as §1, §2, §3, §4

As to `CSCC[C@H](NC(C)=O)C(=O)N[C@H]1CSSC[C@@H](C(=O)NCC(=O)N[C@@H](CO)C(=O)NCC(=O)N[C@@H](CO)C(=O)N[C@@H](CC(=O)O)C(=O)N[C@@H](Cc2ccc(O)cc2)C(=O)N[C@@H](CCCCN)C(=O)N[C@@H](CC(=O)O)C(=O)N[C@@H](CC(=O)O)C(=O)N[C@@H](CC(=O)O)C(=O)N[C@@H](CC(=O)O)C(=O)N[C@@H](CCCCN)C(N)=O)NC(=O)[C@H](Cc2c[nH]c3ccccc23)NC(=O)[C@H](CC(C)C)NC(=O)[C@H](CC(C)C)NC(=O)[C@H](Cc2ccc(O)cc2)NC(=O)[C@H](Cc2ccc(O)cc2)NC(=O)[C@H](Cc2ccccc2)NC(=O)[C@H](CC(C)C)NC(=O)[C@H](C(C)C)NC(=O)[C@H](CCCCN)NC(=O)[C@H](CCCCN)NC(=O)[C@H](CC(N)=O)NC(=O)[C@H](CCC(=O)O)NC1=O` [4.20], the Kd at FGF-R4 ECD was 321 nM; at FGF-R1C ECD, > 1000 nM; on FGF-R3C ECD, > 1000 nM.
Take `CC[C@H](C)[C@@H]1NC(=O)[C@H](Cc2c[nH]c3ccccc23)NC(=O)[C@H](Cc2ccc(O)cc2)NC(=O)[C@H](CCCCN)NC(=O)[C@H](C(C)C)NC(=O)[C@H](Cc2c[nH]c3ccccc23)NC(=O)[C@H](Cc2ccc(O)cc2)NC(=O)[C@H](CCCCN)NC(=O)[C@H](CC(=O)O)NC(=O)[C@@H](NC(=O)[C@H](CCSC)NC(C)=O)CSSC[C@@H](C(=O)NCC(=O)N[C@@H](CO)C(=O)NCC(=O)N[C@@H](CO)C(=O)N[C@@H](CC(=O)O)C(=O)N[C@@H](Cc2ccc(O)cc2)C(=O)N[C@@H](CCCCN)C(=O)N[C@@H](CC(=O)O)C(=O)N[C@@H](CC(=O)O)C(=O)N[C@@H](CC(=O)O)C(=O)N[C@@H](CC(=O)O)C(=O)N[C@@H](CCCCN)C(N)=O)NC(=O)[C@H](CCCNC(=N)N)NC(=O)[C@H](Cc2c[nH]c3ccccc23)NC(=O)[C@H](C)NC1=O` [4.21]: the figures for the Kd on FGF-R4 ECD, on FGF-R1C ECD and on FGF-R3C ECD were 411 nM, 773 nM and 509 nM, respectively.
In the same order, the values of `CC[C@H](C)[C@@H]1NC(=O)[C@H](Cc2ccccc2)NC(=O)[C@H](CCCCN)NC(=O)[C@H](CC(N)=O)NC(=O)[C@H](Cc2ccc(O)cc2)NC(=O)[C@@H](NC(=O)[C@H](CCSC)NC(C)=O)CSSC[C@@H](C(=O)NCC(=O)N[C@@H](CO)C(=O)NCC(=O)N[C@@H](CO)C(=O)N[C@@H](CC(=O)O)C(=O)N[C@@H](Cc2ccc(O)cc2)C(=O)N[C@@H](CCCCN)C(=O)N[C@@H](CC(=O)O)C(=O)N[C@@H](CC(=O)O)C(=O)N[C@@H](CC(=O)O)C(=O)N[C@@H](CC(=O)O)C(=O)N[C@@H](CCCCN)C(N)=O)NC(=O)[C@H](Cc2ccc(O)cc2)NC(=O)[C@H](CC(C)C)NC(=O)[C@H](C(C)C)NC(=O)[C@H](CCCCN)NC(=O)[C@H](Cc2ccc(O)cc2)NC(=O)[C@H](CC(C)C)NC(=O)[C@H]([C@@H](C)O)NC1=O` [4.19] are 790 nM, > 1000 nM and > 1000 nM.
Regarding `CSCC[C@H](NC(C)=O)C(=O)N[C@H]1CSSC[C@@H](C(=O)NCC(=O)N[C@@H](CO)C(=O)NCC(=O)N[C@@H](CO)C(=O)N[C@@H](CC(=O)O)C(=O)N[C@@H](Cc2ccc(O)cc2)C(=O)N[C@@H](CCCCN)C(=O)N[C@@H](CC(=O)O)C(=O)N[C@@H](CC(=O)O)C(=O)N[C@@H](CC(=O)O)C(=O)N[C@@H](CC(=O)O)C(=O)N[C@@H](CCCCN)C(N)=O)NC(=O)[C@@H]2CCCN2C(=O)[C@H](CCCNC(=N)N)NC(=O)[C@H](Cc2c[nH]c3ccccc23)NC(=O)[C@@H]2CCCN2C(=O)[C@H](CCC(=O)O)NC(=O)[C@H](Cc2c[nH]cn2)NC(=O)[C@H](Cc2c[nH]c3ccccc23)NC(=O)[C@H](Cc2ccc(O)cc2)NC(=O)[C@H](C)NC(=O)[C@H](CCCCN)NC(=O)[C@H]([C@@H](C)O)NC(=O)[C@H](Cc2ccc(O)cc2)NC1=O` [4.24], the Kd at FGF-R4 ECD, at FGF-R1C ECD and on FGF-R3C ECD was > 1000 nM in each case.
In the case of `CSCC[C@H](NC(C)=O)C(=O)N[C@H]1CSSC[C@@H](C(=O)NCC(=O)N[C@@H](CO)C(=O)NCC(=O)N[C@@H](CO)C(=O)N[C@@H](CC(=O)O)C(=O)N[C@@H](Cc2ccc(O)cc2)C(=O)N[C@@H](CCCCN)C(=O)N[C@@H](CC(=O)O)C(=O)N[C@@H](CC(=O)O)C(=O)N[C@@H](CC(=O)O)C(=O)N[C@@H](CC(=O)O)C(=O)N[C@@H](CCCCN)C(N)=O)NC(=O)[C@H](CC(=O)O)NC(=O)[C@H](CCCCN)NC(=O)[C@H](C(C)C)NC(=O)[C@H](Cc2c[nH]c3ccccc23)NC(=O)[C@H](Cc2ccccc2)NC(=O)[C@H](C(C)C)NC(=O)[C@H](Cc2c[nH]cn2)NC(=O)[C@H](CC(C)C)NC(=O)[C@H](CCCCN)NC(=O)[C@H](CCCCN)NC(=O)[C@H](Cc2c[nH]c3ccccc23)NC(=O)[C@H](Cc2ccccc2)NC1=O` [4.22], the Kd was < 1 nM at FGF-R4 ECD, 2 nM on FGF-R1C ECD and 12 nM on FGF-R3C ECD. The “R4 KD (nM)” value at FGF-R4 ECD is reported as “sub-nanomolar”.
`CSCC[C@H](NC(C)=O)C(=O)N[C@H]1CSSC[C@@H](C(=O)NCC(=O)N[C@@H](CO)C(=O)NCC(=O)N[C@@H](CO)C(=O)N[C@@H](CC(=O)O)C(=O)N[C@@H](Cc2ccc(O)cc2)C(=O)N[C@@H](CCCCN)C(=O)N[C@@H](CC(=O)O)C(=O)N[C@@H](CC(=O)O)C(=O)N[C@@H](CC(=O)O)C(=O)N[C@@H](CC(=O)O)C(=O)N[C@@H](CCCCN)C(N)=O)NC(=O)[C@H](C)NC(=O)[C@H](CCCCN)NC(=O)[C@H](CCCNC(=N)N)NC(=O)[C@H](Cc2c[nH]c3ccccc23)NC(=O)[C@H](CC(C)C)NC(=O)[C@H](CC(C)C)NC(=O)[C@H](Cc2ccc(O)cc2)NC(=O)[C@H](Cc2ccc(O)cc2)NC(=O)[C@H](Cc2ccccc2)NC(=O)[C@H](CC(C)C)NC(=O)[C@H](CC(=O)O)NC(=O)[C@H](CC(N)=O)NC1=O` [4.18]: the Kd is 602 nM on FGF-R4 ECD, > 1000 nM at FGF-R1C ECD and > 1000 nM on FGF-R3C ECD.
`CSCC[C@H](NC(C)=O)C(=O)N[C@H]1CSSC[C@@H](C(=O)NCC(=O)N[C@@H](CO)C(=O)NCC(=O)N[C@@H](CO)C(=O)N[C@@H](CC(=O)O)C(=O)N[C@@H](Cc2ccc(O)cc2)C(=O)N[C@@H](CCCCN)C(=O)N[C@@H](CC(=O)O)C(=O)N[C@@H](CC(=O)O)C(=O)N[C@@H](CC(=O)O)C(=O)N[C@@H](CC(=O)O)C(=O)N[C@@H](CCCCN)C(N)=O)NC(=O)[C@H](CCC(N)=O)NC(=O)[C@H](CCCCN)NC(=O)[C@H](Cc2ccccc2)NC(=O)[C@H](CC(C)C)NC(=O)[C@H](CC(C)C)NC(=O)[C@H](Cc2ccc(O)cc2)NC(=O)[C@H](Cc2ccc(O)cc2)NC(=O)[C@H](Cc2ccc(O)cc2)NC(=O)[C@H](CC(C)C)NC(=O)[C@H](Cc2c[nH]cn2)NC(=O)[C@H](CCCCN)NC(=O)[C@H](CC(N)=O)NC1=O` [4.25]: the Kd at FGF-R4 ECD was 3 nM; on FGF-R1C ECD, > 1000 nM; on FGF-R3C ECD, > 1000 nM.
